Test results as given in patent US8193369B2, “Benzimidazole cannabinoid agonists” (Janssen Pharmaceutica NV, priority 2007, dated 2012).

Biological target: T1, human CB2 (hCB2) receptor (Homo sapiens, UniProt P34972)
T1 construct: expressed in transfected cells; host or cells: CHO-K1
Assay: Inhibition of forskolin-activated cAMP production upon activation of human CB2 receptor (HTRF)
Format: cell-based
Conditions: CHO-K1 cells stably transfected with hCB2; 15 μM forskolin; pEC50=-log(EC50); relative to WIN55212-2
Description: D. Pharmacological Examples D.1 Inhibition of cAMP in Response to Activation of the Human CB2 Receptors
Functional activity of the test compounds was assessed by measuring their potency to inhibit forskolin-activated cAMP production upon activation of human CB2 (hCB2) receptor through homogenous time resolved fluorescence (HTRF) assays.
CHO-K1 cells stably transfected with hCB2 were grown up to 80-90% confluence in T175 Falcon flasks in DMEM/NUT MIX F-12 culture medium complemented with 2% Solution A (5.10^6 IU/l penicillin G, 5 g/l streptomycin sulphate, 5.5 g/l pyruvate, 14.6 g/l L-glutamine, 1M NaOH) and 10% foetal calf serum. Before the experiments, medium was removed, cells were washed with PBS/EDTA (140 mM NaCl, 1 mM Na2-EDTA, 8 mM Na2HPO4.2H2O, 8.5 mM KH2PO4, 2.7 mM KCl, 21 mM glucose), resuspended in stimulation buffer (HBSS 1×, IBMX 1 mM, Hepes 5 mM, MgCl2 10 mM, BSA 0.1%, pH 7.4). Cells were diluted to a concentration of 10^6 cells/ml for hCB2 experiments. Assays were performed using the cAMP Dynamic HTRF kit (CIS bio international, France) according to the recommendations of the manufacturer.
For CB2, each well of a 384 flat bottom black polystyrene assay plate (Costar) was filled with 10 μl stimulation buffer containing 15 μM forskolin and either test compound (in 3% DMSO), 3% DMSO or 10 μM Win55212-2 (in 3% DMSO). Then, 20 μl of the diluted hCB2-CHO-K1 cells was added (20,000 cells/well). After 30 minutes incubation in dark at room temperature, 10 μl cAMP-XL665 and 10 μl anti-cAMP cryptate (both at a final dilution of 1/100) was added to the cells.
After equilibration of the reaction mixtures for 1 to 24 hours in dark at room temperature, fluorescence was measured at 665 nm and 620 nm using a Discovery microplate fluorescence counter (Perkin Elmer), and the signal ratio of 665 nm/620 nm was calculated. The signal ratios of the test compounds were expressed relative to the signal ratios of the DMSO control (maximal signal ratio, no inhibition of cAMP) and WIN55212-2 for hCB2, respectively (minimal signal ratio, maximal inhibition of cAMP). From the dose response curves generated for each test compound, the dose at which 50% of the maximal inhibition of cAMP level is observed (EC50, expressed in the Table as pEC50=−log (EC50) values) and the level of inhibition reached with 10 μM of the test compound compared to WIN55212-2 (for hCB2) was calculated.

T1 sequence (P34972 whole entry): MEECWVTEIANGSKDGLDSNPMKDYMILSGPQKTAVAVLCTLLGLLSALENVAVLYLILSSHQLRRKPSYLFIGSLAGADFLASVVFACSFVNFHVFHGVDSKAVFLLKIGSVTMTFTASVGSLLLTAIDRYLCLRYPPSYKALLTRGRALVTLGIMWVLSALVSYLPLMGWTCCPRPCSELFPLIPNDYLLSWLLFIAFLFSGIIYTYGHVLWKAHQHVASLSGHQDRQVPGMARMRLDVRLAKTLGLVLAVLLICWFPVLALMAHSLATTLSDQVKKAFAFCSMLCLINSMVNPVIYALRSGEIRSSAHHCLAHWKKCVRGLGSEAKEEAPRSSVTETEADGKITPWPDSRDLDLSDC

Row | Compound | EC50 [nM] | CB2 pEC50
1 | CC(=O)N1CCC(Cn2c(C(C)(C)C)nc3cc(S(=O)(=O)Cc4ccccc4)ccc32)CC1 [Co. No. 73] | 2.34 | 
2 | CCS(=O)(=O)c1ccc2c(c1)nc(C(C)(C)C)n2CC1CCN(C(C)=O)CC1 [compound 1] | 8.51 | 
3 | CC(=O)N1CCC(Cn2c(C(C)(C)C)nc3cc(S(=O)(=O)CCCC(F)(F)F)ccc32)CC1 [compound 3] | 15.5 | 
4 | CC(=O)N1CCC(Cn2c(C(C)(C)C)nc3cc(S(=O)(=O)CCCC#N)ccc32)CC1 [compound 10] | 21.9 | 
5 | COc1ccc(CSc2ccc3c(c2)nc(C(C)(C)C)n3CC2CCN(C(C)=O)CC2)cc1 [compound 11] | 20.4 | 
6 | COc1ccc(CS(=O)(=O)c2ccc3c(c2)nc(C(C)(C)C)n3CC2CCN(C(C)=O)CC2)cc1 [compound 12] | 158 | 
7 | CC(=O)N1CCC(Cn2c(C(C)(C)C)nc3cc(SCCCO)ccc32)CC1 [compound 13] | 8.71 | 
8 | CC(=O)N1CCC(Cn2c(C(C)(C)C)nc3cc(SCCC#N)ccc32)CC1 [compound 15] | 10 | 
9 | CC(=O)N1CCC(Cn2c(C(C)(C)C)nc3cc(SCc4ccc(F)cc4)ccc32)CC1 [compound 17] | 0.794 | 
10 | CC(=O)N1CCC(Cn2c(C(C)(C)C)nc3cc(Sc4ccc(C#N)cc4)ccc32)CC1 [compound 18] | 6.31 | 
11 | CC(=O)N1CCC(Cn2c(C(C)(C)C)nc3cc(S(=O)(=O)CCCO)ccc32)CC1 [compound 19] |  | 6.84
12 | COCCS(=O)(=O)c1ccc2c(c1)nc(C(C)(C)C)n2CC1CCN(C(C)=O)CC1 [compound 20] |  | 7.59
13 | CC(C)(C)c1nc2cc(SCCCO)ccc2n1CC1CCN(C=O)CC1 [compound 21] | 5.37 | 
14 | COCCSc1ccc2c(c1)nc(C(C)(C)C)n2CC1CCN(C=O)CC1 [compound 22] | 7.08 | 
15 | CC(=O)N1CCC(Cn2c(C(C)(C)C)nc3cc(S(=O)(=O)c4ccc(C#N)cc4)ccc32)CC1 [compound 23] | 3.72 | 
16 | CC(C)S(=O)(=O)c1ccc2c(c1)nc(C(C)(C)C)n2CC1CCS(=O)(=O)CC1 [compound 30] | 50.1 | 

Row | Compound | EC50 [nM] | CB2 pEC50
17 | CC(=O)N1CCC(Cn2c(C(C)(C)C)nc3cc(SC4CCCC4)ccc32)CC1 [compound 32] | 1.29 | 
18 | CC(=O)N1CCC(Cn2c(C(C)(C)C)nc3cc(Sc4ccncc4)ccc32)CC1 [compound 33] | 4.47 | 
19 | CC(=O)N1CCC(Cn2c(C(C)(C)C)nc3cc(S(=O)(=O)C4CCCC4)ccc32)CC1 [compound 35] |  | 8.49
20 | CC(C)(C)c1nc2cc(SCC3CC3)ccc2n1CC1CCN(C=O)CC1 [compound 37] | 1.32 | 
21 | CC(=O)N1CCC(Cn2c(C(C)(C)C)nc3cc(S(=O)(=O)C(C)C#N)ccc32)CC1 (centres unmarked) [compound 39] | 7.08 | 
22 | CC(=O)N1CCC(Cn2c(C(C)(C)C)nc3cc(SCC4CCC4)ccc32)CC1 [compound 41] | 1.17 | 
23 | CC(=O)N1CCC(Cn2c(C(C)(C)C)nc3cc(S(=O)(=O)C(C)(C)C#N)ccc32)CC1 [compound 42] | 5.5 | 
24 | CCS(=O)(=O)c1ccc2c(c1)nc(C(C)C)n2CC1CCN(C(C)=O)CC1 [compound 47] | 955 | 
25 | CC(=O)N1CCC(Cn2c(C(C)(C)C)nc3cc(Sc4ccccn4)ccc32)CC1 [compound 50] | 7.76 | 
26 | CCC(CC)Sc1ccc2c(c1)nc(C(C)(C)C)n2CC1CCN(C(C)=O)CC1 [compound 51] | 0.794 | 
27 | CC(=O)N1CCC(Cn2c(C(C)(C)C)nc3cc(SCCc4ccc(F)cc4)ccc32)CC1 [compound 52] | 3.98 | 
28 | CC(=O)N1CCC(Cn2c(C(C)(C)C)nc3cc(Sc4cccnc4)ccc32)CC1 [compound 54] | 2.29 | 
29 | CC(=O)N1CCC(Cn2c(C(C)(C)C)nc3cc(S(=O)(=O)C(C)(C)c4ccccc4)ccc32)CC1 [compound 55] | 93.3 | 
30 | CC(=O)N1CCC(Cn2c(C(C)(C)C)nc3cc(S(=O)(=O)CCc4ccc(F)cc4)ccc32)CC1 [compound 56] | 3.39 | 
31 | CC(=O)N1CCC(Cn2c(C(C)(C)C)nc3cc(Sc4c(Cl)cccc4Cl)ccc32)CC1 [compound 57] | 1.58 | 
32 | CC(=O)N1CCC(Cn2c(C(C)(C)C)nc3cc(Sc4ccc(F)cc4)ccc32)CC1 [compound 58] | 8.51 | 
